The values below come from US20080260659A1, “Compositions” (GIVAUDAN SA, priority 2005, published 2008).

Holding throughout (format): cell-based
The subject of test [1] is Aspergillus niger ATCC 16404 spores. Briefly: Sporicidal effect of test compounds in water. Conditions: 0.1% test compound, 7 days. The protocol:
Aspergillus niger ATCC 16404 spores are added to water to obtain a density of 3×10^5 spores 1 ml. In order to prepare the spores, the test strain is grown for 5 days on potato dextrose agar at room temperature. The spores are harvested with a solution containing 0.1% Tween 80, peptone 0.1% and NaCl 0.85% and the spore concentration is adjusted to the density indicated above.
Test compounds are dissolved in dipropyleneglycol to a concentration of 20%.
These stock solutions are added to 10 ml aliquots of the spore suspension to obtain a final concentration of the test compounds of 0.1%. The sporicidal effect is shown by a reduction of spore counts after 7 days.
The reduction factor is determined as follows. Aliquots of the above prepared suspension of microorganisms (here: spore suspension prepared as described above) are plated on a suitable agar medium (see above) and the developing colonies are counted both for samples with test compound and for a negative probe (water). The count of the negative control is divided by the count of the test compound and thereby the reduction factor is determined. A negative control (water) accordingly has a reduction factor of 1 (no effect on the microorganism).

The test system of test [2] is Staphylococcus aureus (DSMZ 799) and Pseudomonas aeruginosa (ATCC 15442). Description: Bactericidal effect in a cosmetic cream (mixed inoculum 1:1). Conditions: cosmetic cream pH 5,5; 0.1% 4-hydroxybenzaldehyde, no parabens. The protocol:
(§1) A cosmetic cream (pH 5,5) for application to the human skin is formulated as follows (in % w/w): […]
(§2) Glyceryl-monostearate, Sweet almond oil, Cetyl-stearyl-alcohol and Glyceryl dilaurate are melted at 80° C. Xanthan gum is dispersed into glycerine. Arginine is dissolved in water and heated to 75° C. The Xanthan gum—glycerin suspension is added to the heated water phase, the heated oil phase is added and the suspension is stirred at 300 rpm for 10 min whilst being cooled down slowly. Finally, a homogeneous emulsion is made with a high speed homogenizer at 5000 rpm.
Test samples of cream contain different amounts of preservatives and/or preservative enhancer. The preservative and preservative enhancer is added to an aliquot of 10 g of the cream in 50 ml tubes in a concentration as shown in the table below. After addition of the preservative/preservative enhancer, the cream is thoroughly mixed to achieve a homogeneous distribution.
After 1-3 days of equilibration of the cream (storage at room temperature to achieve a homogenous partitioning of compounds between oil and water phase), […]
Aliquots of these suspended and diluted samples are plated on tryptic soy agar supplemented with 0.5% Tween 80 and then incubated for 24 h at 37° C. Surviving bacteria are counted.
(§3) The count of the negative control is divided by the count of the probe and thereby the reduction factor is determined. […]

In test [3] the test system is Aspergillus niger ATCC 16404 spores. Description: Sporicidal effect in a cosmetic cream. Conditions: cosmetic cream pH 5,5; 0.1% 4-hydroxybenzaldehyde, no parabens. The protocol: as §1, §2
Test samples of cream contain different amounts of preservatives and/or preservative enhancer. The preservative and preservative enhancer is added to an aliquot of 10 g of the cream in 50 ml tubes in a concentration as shown in the table below. After addition of the preservative/preservative enhancer, the cream is thoroughly mixed to achieve a homogeneous distribution. […]
After regular test intervals, samples of 1 g cream are removed and added to 20 ml of a neutralizer solution containing 0.2% lecithin, 2% Tween 80 and 0.5% NaCl. […] After 48 h to 72 h the number of surviving colony forming units (and therefore surviving spores) are counted.
as §3

For the compound `C=CCCCCCCCCO` [9-decenol, reference compound], in test [1], the “Sporicidal effect / reduction of spore counts” value (“Sporicidal effect / reduction” below) is on record as “significant sporicidal effect”. As for `O=Cc1ccc(O)cc1` [4-hydroxybenzaldehyde], the “Sporicidal effect / reduction” value in test [1] is “No significant reduction of spore counts”. Besides, in test [2], the “reduction factor 24 h bacteria” value amounted to 1. For the same compound, in test [3], the “reduction factor 7 d fungal spores” value was determined as 1. Regarding `CC(CC=O)CCc1ccccc1` (stereo not drawn) [Mefranal, 3-methyl-5-phenylpentanal, reference compound], the “Sporicidal effect / reduction” value in test [1] is recorded as “significant sporicidal effect”. Still for that read-out and setting: as for `COc1ccc(C=O)cc1` [4-methoxy-benzaldehyde], the entry is “No significant reduction of spore counts”.
